The values below come from patent US20040096951A1, “Crystal structures of retaining glycosytransferases” (priority 2003, published 2004).

pKi: −log10 of the molar value. Where a name gives a salt, the structure may show the parent alone.

In data set [1] the test system is OC[C@H]1O[C@@H](O[C@H]2[C@H](O)[C@@H](O)C(O)O[C@@H]2CO)[C@H](O)[C@@H](O)[C@H]1O. Kind of data set: purified protein, by the assay type. As to conditions: other: LgtC wild type; acceptor substrate; pH 7.5; 30.0 °C. It is filed as biochemical, Neisseria meningitidis.
The target in data set [2] is T1, LgtC (Neisseria meningitidis, UniProt Q93EK7, Q189A).
T1 construct: a deletion mutant of LgtC missing the C-terminal 25 residues; made in house; host or cells: E. coli (AD202)
T1 sequence (Q93EK7 1-286 Q189A): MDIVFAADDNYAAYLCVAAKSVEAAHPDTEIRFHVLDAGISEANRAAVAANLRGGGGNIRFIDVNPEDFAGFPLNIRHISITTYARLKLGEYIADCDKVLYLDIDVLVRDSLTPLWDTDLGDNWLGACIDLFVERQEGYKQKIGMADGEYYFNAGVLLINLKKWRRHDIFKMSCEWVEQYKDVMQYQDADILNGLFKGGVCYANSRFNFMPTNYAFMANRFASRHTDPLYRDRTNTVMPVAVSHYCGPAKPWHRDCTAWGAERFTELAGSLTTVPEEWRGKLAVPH
Put plainly: biochemical. It is filed as biochemical. The note with it: Q189A mutant; added reagent. As for the experimental part: (§1) Synthesis of UDP-2Fgal was achieved essentially as described previously (ref. 19). Syntheses of 4′-deoxylactose, 6′-deoxylactose and galactosyl β-1,6-lactose will be described elsewhere. Kinetic studies were performed at 30° C. in 20 mM HEPES, pH 7.5 containing 0.1% bovine serum albumin, 50 mM KCl, 5 mM MnCl2 and 5 mM DTT. […] The change in absorbance was measured by means of a UNICAM 8700 UV-Vis spectrophotometer equipped with a circulating water bath. Kinetic parameters were calculated by direct fit of the initial rates to the respective equations using Grafit version 3.0 (ref.43).

The target of data set [3] is T2, LgtC (Neisseria meningitidis, UniProt Q93EK7).
T2 construct: a deletion mutant of LgtC missing the C-terminal 25 residues; made in house; host or cells: E. coli (AD202)
T2 sequence (Q93EK7 entry or part of it): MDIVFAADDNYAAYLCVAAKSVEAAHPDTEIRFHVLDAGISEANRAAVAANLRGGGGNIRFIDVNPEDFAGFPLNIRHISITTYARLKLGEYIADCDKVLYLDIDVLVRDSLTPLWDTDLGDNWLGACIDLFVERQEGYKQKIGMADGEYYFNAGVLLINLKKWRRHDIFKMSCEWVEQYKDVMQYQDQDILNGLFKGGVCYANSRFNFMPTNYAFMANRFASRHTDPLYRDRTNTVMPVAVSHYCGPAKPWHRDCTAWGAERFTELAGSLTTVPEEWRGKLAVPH
Kind of data set: biochemical. It is filed as biochemical. As to conditions: for Function as a substrate for LgtC (transfer): galactosyl β-1,6-lactose incubated in the presence of UDP plus the usual buffer components. Here is the method: as §1

For data set [4], the system named is two other galactosyltransferases. The note with it: shown previously; cited from earlier work.

In general, Km refers to the substrate concentration at which the rate is half of its maximum. As usually defined, the pKi is −log10 of the Ki, conventionally taken in molar units. A lower pKi goes with a high Ki.

For the molecule LgtC (Neisseria meningitidis), the Michaelis-Menten constant (Km) in data set [1] amounted to 20 mM.
Take `O=CO` [formate]: the “Rescue of activity of the Q189A mutant by added small molecules (rate increase)” value (“Rescue of activity … (rate increase)” below) on LgtC [2] was “No rate increases were observed”.
With `C[C@H]1OC(O)[C@H](O)[C@@H](O)[C@@H]1O[C@@H]1O[C@H](CO)[C@H](O)[C@H](O)[C@H]1O` (some centres unmarked) [6-deoxylactose], at LgtC [3] (LgtC), the “Action as an inhibitor of LgtC” value was “neither did it act as an inhibitor” and the “Function as a substrate for LgtC (transfer)” value (from here on “Function as a substrate”) is listed as “shown not to function as a substrate”.
On to `OC[C@@H]1C[C@H](O)[C@@H](O)[C@H](O[C@H]2[C@H](O)[C@@H](O)C(O)O[C@@H]2CO)O1` (some centres unmarked) [4-deoxylactose, 4′-Deoxylactose], for which the pKi on LgtC [3] is 1.80. For the same molecule, the “Function as a substrate” value on LgtC [3] (LgtC) was “cannot function as a substrate”.
On to `CC(N)=O` [acetamide], for which the “Rescue of activity … (rate increase)” value at LgtC [2] is given as “No rate increases were observed”.
In the case of `[N-]=[N+]=[N-]` [azide], the “Rescue of activity … (rate increase)” value on LgtC [2] is given as “No rate increases were observed”.
`O=c1ccn([C@@H]2O[C@H](COP(=O)(O)OP(=O)(O)O[C@H]3O[C@H](CO)[C@H](O)[C@H](O)[C@H]3F)[C@@H](O)[C@H]2O)c(=O)[nH]1` [UDP-2FGal, Uridine 5′-diphospho-(2-deoxy-2-fluoro)-α-D-galactopyranose, di-ammonium Salt, reference compound]: at LgtC [3], the negative-log Ki (pKi) was 5.70. For the same molecule, the “Function as a substrate” value on LgtC [3] (LgtC) is listed as “no transfer occurs”. Further, in data set [4], the “Inhibition of other galactosyltransferases” value was “shown to inhibit”.
Take galactosyl β-1,6-lactose: the “Function as a substrate” value at LgtC [3] (LgtC) was “does not function as a substrate”.
On to `NC=O` [formamide], for which the “Rescue of activity … (rate increase)” value on LgtC [2] is reported as “No rate increases were observed”.
The same measure, in the same setting: the value for `CC(=O)O` [acetate] was “No rate increases were observed”.
